Reference: patent US8653056B2, “Method of preparation of a soluble formulation of water-insoluble pentacyclic and tetracyclic terpenoids, a soluble formulation of a pentacyclic or tetracyclic terpenoid and a pharmaceutical composition containing this soluble formulation” (Univerzita Karlova V Praze, Prirodovedecka Fakulta, priority 2006, dated 2014)

assay: Bioavailability and pharmacokinetic profile at oral administration to laboratory mice; assay type: in vivo, outbred mice CD-1; conditions: intragastric single dose 200 μl, soluble cyclodextrin formulation
Method: Determination of Bioavailability and Pharmacokinetic Profile at Oral Administration of the Compounds to Laboratory Mice
Soluble cyclodextrin formulations of terpenoid compounds, prepared in accordance with the aforementioned methods A or B, were administered without dilution to outbred mice CD-1 intragastrically (200 μl in a single dose) as aqueous solutions by injection syringe equipped with a gastric tube. Insoluble compounds were administered intragastrically as well (200 μl in a single dose), but in the form of aqueous suspensions in 0.5-1% carboxymethyl cellulose. In time intervals 2, 4, 6, 8, 12 and 24 h, blood was taken from the mice, the blood was centrifuged and the obtained plasma was subsequently analysed by HPLC-ESI MS technique.
(§1) HPLC-ESI MS technique was used or the determination of the concentration of dissolved triterpenoids. The samples were measured in one analytical batch with calibration solutions and blind control. The sample for the measurement was prepared from 50 μl of aqueous solution containing the inclusion compound by dilution with methanol to the volume of 10 ml. Subsequently, 10 μl of the sample solution after the first dilution is further diluted to 1 ml by the mobile phase. The blind control was obtained from 50 μl of pre-prepared aqueous solution of 2-hydroxypropyl-γ-cyklodextrin by dilution with methanol to 10 ml. Subsequently, 10 μl of the blind control solution after the first dilution is further diluted to 1 ml by methanol. Stock solutions of standards (concentration 0.2 mg/ml) were prepared by weighing 2.00 mg of analyte to 10 ml graduated flask and dissolution in methanol. The calibration samples were then prepared by dilution of the stock solution with mobile phase (0.4 μg/ml resp. 4 μg/ml).
The analysis was carried out at ODS Hypersil 125×2.1 mm, 5 um, SN 0745415X, Thermo EC column, ODS 4.0×3.0 mm precolumn, Phenomenex, mobile phase A—100 mmol/L aqueous solution of ammonium formate, pH is adjusted to 5 by formic acid, B—100 mmol/L methanolic solution of ammonium formate, column temperature: 25° C., linear gradient or isocratic elution, injected volume 30 μl. The concentration was determined by comparison with standard and calculated to the original solution containing the inclusion compound.

| Compound | oral availability |
| --- | --- |
| C=C(C)[C@@H]1CC[C@]2(C(=O)OCC)CC[C@]3(C)[C@H](CC[C@@H]4[C@@]5(C)CC[C@H](OC(=O)CCC(=O)O)C(C)(C)[C@@H]5CC[C@]43C)[C@@H]12 [2b] | prove oral availability |
| C=C(C)[C@@H]1CC[C@]2(C(=O)OC)CC[C@]3(C)[C@H](CC[C@@H]4[C@@]5(C)CC[C@H](OC(=O)CCCC(=O)O)C(C)(C)[C@@H]5CC[C@]43C)[C@@H]12 [2i] | prove oral availability |

assay: Concentration of dissolved triterpenoid in the aqueous cyclodextrin solution (HPLC-ESI MS); assay type: physicochemical; conditions: solution method A: water, saturated sodium hydrogencarbonate solution, ethanol, 2-hydroxypropyl-γ-cyclodextrin, 50° C.
Method: (§2) Into the resulting colourless, viscous solution, soluble triterpene derivative (1.50 g) is added at once and the mixture is again vigorously stirred at the temperature of 50° C. […] After the triterpenoid is completely dissolved, the resulting clear solution is cooled to room temperature, filtered with a syringe filter (hydrophilic, pore size 0.22 μm) in order to be sterile and is placed in a refrigerator.
as §2, with “Method B: In a mixture of water (14.0 ml) and propylene glycol (6.0 ml), 2-hydroxypropyl-γ-cyklodextrin (7.00 g) is dissolved at the temperature of 50° C. under vigorous stirring. Into” for “Into”, “derivate (1.00” for “derivative (1.50”, “and” for “and the mixture”
Analytic Determination of the Concentration of Dissolved Triterpenoids in the Application Form and in Plasma Samples
as §1
The concentration was determined by comparison with standard and calculated to the original solution containing the inclusion compound.

| Compound | Conc. of dissolved substance |
| --- | --- |
| C=C(C)C1CCC2(C(=O)OC)CCC3(C)C(CCC4C5(C)CCC(OC(=O)C6CC=CCC6C(=O)O)C(C)(C)C5CCC43C)C12 (mixture of isomers) [2m] | 43000 µg/mL |
| C=C(C)C1CCC2(COC(=O)CCC(=O)O)CCC3(C)C(CCC4C5(C)CCC(OC(=O)CCC(=O)O)C(C)(C)C5CCC43C)C12 (centres unmarked) [1a, betulin dihemisuccinate] | 54000 µg/mL |
| C=C(C)[C@@H]1CC[C@]2(COC(=O)c3ccccc3C(=O)O)CC[C@]3(C)[C@H](CC[C@@H]4[C@@]5(C)CC[C@H](OC(=O)c6ccccc6C(=O)O)C(C)(C)[C@@H]5CC[C@]43C)[C@@H]12 [1b, betulin dihemiphtalate] | 39000 µg/mL |
| C=C(C)[C@@H]1CC[C@]2(C(=O)OCC)CC[C@]3(C)[C@H](CC[C@@H]4[C@@]5(C)CC[C@H](OC(=O)CCC(=O)O)C(C)(C)[C@@H]5CC[C@]43C)[C@@H]12 [2b] | 45000 µg/mL |
| C=C(C)[C@@H]1CC[C@]2(C(=O)OCC)CC[C@]3(C)[C@H](CC[C@@H]4[C@@]5(C)CC[C@H](OC(=O)c6ccccc6C(=O)O)C(C)(C)[C@@H]5CC[C@]43C)[C@@H]12 [2c] | 41000 µg/mL |
| C=C(C)[C@@H]1CC[C@]2(C(=O)O)CC[C@]3(C)[C@H](CC[C@@H]4[C@@]5(C)CC[C@H](OC(=O)CCC(=O)O)C(C)(C)[C@@H]5CC[C@]43C)[C@@H]12 [2e] | 51000 µg/mL |
| C=C(C)[C@@H]1CC[C@]2(C(=O)OC)CC[C@]3(C)[C@H](CC[C@@H]4[C@@]5(C)CC[C@H](OC(=O)CCCC(=O)O)C(C)(C)[C@@H]5CC[C@]43C)[C@@H]12 [2i] | 51000 µg/mL |
| C=C(C)[C@@H]1CC[C@]2(C(=O)O[C@@H]3O[C@H](CO)[C@@H](O)[C@H](O)[C@H]3O)CC[C@]3(C)[C@H](CC[C@@H]4[C@@]5(C)CC[C@H](O)C(C)(C)[C@@H]5CC[C@]43C)[C@@H]12 [2j] | 59000 µg/mL |
| C=C(C)[C@@H]1CC[C@]2(C(=O)O)CC[C@]3(C)[C@H](CC[C@@H]4[C@@]5(C)CC[C@H](O)C(C)(C)[C@@H]5CC[C@]43C)[C@@H]12 [compound 2, Betulinic acid, reference compound] | 38000 µg/mL |
| C=C(C=O)[C@@H]1CC[C@]2(C(=O)OCC)CC[C@]3(C)[C@H](CC[C@@H]4[C@@]5(C)CC[C@H](OC(=O)c6ccccc6C(=O)O)C(C)(C)[C@@H]5CC[C@]43C)[C@@H]12 [hemiphtalate 3b] | 40000 µg/mL |

More lines, now with the values ahead:

| Conc. of dissolved substance | Compound |
| --- | --- |
| 59000 µg/mL | CC(=O)O[C@H]1CC[C@]2(C)[C@H]3CC[C@@H]4C5=C(C(C)C)C(=O)C[C@]5(C(=O)OCC(=O)O)CC[C@@]4(C)[C@]3(C)CC[C@H]2C1(C)C [4a] |
| 53000 µg/mL | CCOC(=O)[C@@]12CC[C@]3(C)[C@H](CC[C@@H]4[C@@]5(C)CC[C@H](OC(=O)CCC(=O)O)C(C)(C)[C@@H]5CC[C@]43C)C1=C(C(C)C)C(=O)C2 [4e] |
| 28000 µg/mL | CCOC(=O)[C@@]12CC[C@]3(C)[C@H](CC[C@@H]4[C@@]5(C)CC[C@H](OC(=O)c6ccccc6C(=O)O)C(C)(C)[C@@H]5CC[C@]43C)C1=C(C(C)C)C(=O)C2 [4f] |
| 58000 µg/mL | CCOC(=O)[C@@]12CC[C@]3(C)[C@H](CC[C@@H]4[C@@]5(C)CC[C@H](OC(=O)CC(C)(C)CC(=O)O)C(C)(C)[C@@H]5CC[C@]43C)C1=C(C(C)C)C(=O)C2 [4q] |
| 44000 µg/mL | CCOC(=O)[C@@]12CC[C@]3(C)[C@H](CC[C@@H]4[C@@]5(C)CC[C@H](OC(=O)CC(C)(C)C(=O)O)C(C)(C)[C@@H]5CC[C@]43C)C1=C(C(C)C)C(=O)C2 [4r] |
| 44000 µg/mL | COC(=O)[C@@]12CC[C@]3(C)[C@H](CC[C@@H]4[C@@]5(C)CC[C@H](OC(=O)CC(C)(C)C(=O)O)C(C)(C)[C@@H]5CC[C@]43C)C1=C(C(C)C)C(=O)C2 [4s] |
| 44000 µg/mL | CC(C)C1=C2[C@H]3CC[C@@H]4[C@@]5(C)CC[C@H](OC(=O)CC(C)(C)CC(=O)O)C(C)(C)[C@@H]5CC[C@@]4(C)[C@]3(C)CC[C@@]2(C(=O)O)CC1=O [4u] |
| 44000 µg/mL | CCOC(=O)[C@@]12CC[C@]3(C)[C@H](CC[C@@H]4[C@@]5(C)CC[C@H](OC(=O)COCC(=O)O)C(C)(C)[C@@H]5CC[C@]43C)C1=C(C(C)C)C(=O)C2 [4x] |
| 73000 µg/mL | CC1(C)C(OC(=O)CCC(=O)O)CCC2(C)C1CCC1(C)C2CCC2C(=O)C(COC(=O)CCC(=O)O)(C(=O)O)CCC21C (centres unmarked) [7c] |
| 72000 µg/mL | CC1(C)C(OC2OC(CO)C(O)C(O)C2O)CCC2(C)C1CCC1(C)C2CCC2C(=O)C(COC3OC(CO)C(O)C(O)C3O)(C(=O)O)CCC21C (centres unmarked) [7f] |

same assay, conditions: solution method B: water, propylene glycol, 2-hydroxypropyl-γ-cyclodextrin, 50° C.

| Compound | Conc. of dissolved substance |
| --- | --- |
| C=C(C)[C@@H]1CC[C@]2(CO[C@@H]3O[C@H](CO)[C@@H](O)[C@H](O)[C@H]3O)CC[C@]3(C)[C@H](CC[C@@H]4[C@@]5(C)CC[C@H](O[C@@H]6O[C@H](CO)[C@@H](O)[C@H](O)[C@H]6O)C(C)(C)[C@@H]5CC[C@]43C)[C@@H]12 [1c, betulin diglucoside] | 55000 µg/mL |
| C=C(C)[C@@H]1CC[C@]2(C(=O)OCC)CC[C@]3(C)[C@H](CC[C@@H]4[C@@]5(C)CC[C@H](O)C(C)(C)[C@@H]5CC[C@]43C)[C@@H]12 [2a, Ethyl-betulinate] | n (n = concentration lower than the detection threshold, i.e. 1 ng/ml) |
| C=C(C)[C@@H]1CC[C@]2(C(=O)OCC)CC[C@]3(C)[C@H](CC[C@@H]4[C@@]5(C)CC[C@H](O[C@@H]6O[C@H](CO)[C@@H](O)[C@H](O)[C@H]6O)C(C)(C)[C@@H]5CC[C@]43C)[C@@H]12 [2d] | 43000 µg/mL |
| C=C(C)[C@@H]1CC[C@]2(C(=O)OC)CC[C@]3(C)[C@H](CC[C@@H]4[C@@]5(C)CC[C@H](O)C(C)(C)[C@@H]5CC[C@]43C)[C@@H]12 [2h, Methyl betulinate] | n (n = concentration lower than the detection threshold, i.e. 1 ng/ml) |
| C=C(C)[C@@H]1CC[C@]2(C(=O)O[C@@H]3O[C@H](CO)[C@@H](O)[C@H](O)[C@H]3O)CC[C@]3(C)[C@H](CC[C@@H]4[C@@]5(C)CC[C@H](O)C(C)(C)[C@@H]5CC[C@]43C)[C@@H]12 [2j] | 70000 µg/mL |
| C=C(C=O)[C@@H]1CC[C@]2(C(=O)OCC)CC[C@]3(C)[C@H](CC[C@@H]4[C@@]5(C)CC[C@H](O)C(C)(C)[C@@H]5CC[C@]43C)[C@@H]12 [3a] | n (n = concentration lower than the detection threshold, i.e. 1 ng/ml) |
| COC(=O)C12CCC3(C)C(CCC4C5(C)CCC(O)C(C)(C)C5CCC43C)C1=C(C(C)C)C(=O)C2 (centres unmarked) [4d] | n (n = concentration lower than the detection threshold, i.e. 1 ng/ml) |
| C=C(C)[C@@H]1CC[C@]2(CO)CC[C@]3(C)[C@H](CC[C@@H]4[C@@]5(C)CC[C@H](O)C(C)(C)[C@@H]5CC[C@]43C)[C@@H]12 [Betulin, reference compound] | n (n = concentration lower than the detection threshold, i.e. 1 ng/ml) |

Further lines, results first:

| Conc. of dissolved substance | Compound |
| --- | --- |
| 47000 µg/mL | CC(=O)O[C@H]1CC[C@]2(C)[C@H]3CC[C@@H]4C5=C(C(C)C)C(=O)C[C@]5(C(=O)OCC[N+](C)(C)C)CC[C@@]4(C)[C@]3(C)CC[C@H]2C1(C)C.[Br-] [4b] |
| 33000 µg/mL | CC(=O)O[C@H]1CC[C@]2(C)[C@H]3CC[C@@H]4C5=C(C(C)C)C(=O)C[C@]5(C(=O)OCC[n+]5ccccc5)CC[C@@]4(C)[C@]3(C)CC[C@H]2C1(C)C.[Br-] [4c] |
| 60000 µg/mL | CCOC(=O)[C@@]12CC[C@]3(C)[C@H](CC[C@@H]4[C@@]5(C)CC[C@H](O[C@@H]6C[C@@H](OC(C)=O)[C@@H](OC(C)=O)[C@@H](COC(C)=O)O6)C(C)(C)[C@@H]5CC[C@]43C)C1=C(C(C)C)C(=O)C2 [4j] |
| 61000 µg/mL | COC(=O)[C@@]12CC[C@]3(C)[C@H](CC[C@@H]4[C@@]5(C)CC[C@H](O[C@@H]6C[C@@H](OC(C)=O)[C@H](OC(C)=O)[C@@H](COC(C)=O)O6)C(C)(C)[C@@H]5CC[C@]43C)C1=C(C(C)C)C(=O)C2 [4l] |
| 79000 µg/mL | CC1(C)C(OC2OC(CO)C(O)C(O)C2O)CCC2(C)C1CCC1(C)C2CCC2C(=O)C(COC3OC(CO)C(O)C(O)C3O)(C(=O)O)CCC21C (centres unmarked) [7f] |
